Data published in paper PMC5985520 (Molecular bioSystems, 2009).
Like-named read-outs stand apart in the source and are kept apart here.

Molecular target: C2 domain of PKCα (Homo sapiens, UniProt P17252)
Assay: SPR equilibrium binding of PKCα-C2 to lipid vesicles containing PA derivatives

SMILES: CCCCCCCC/C=C\CCCCCCCC(=O)O[C@H](COC(=O)CCCCCCCCCCCCCCC)COP(=O)(O)O [POPA, 1-palmitoyl-2-oleoyl-sn-glycero-3-phosphatidic acid]
- Kd (read-out: Kd (dissociation constant for binding of PKCα-C2 to vesicles containing PA derivative), POPC:POPE:PA (40:40:20) vesicles, 20 mol% PA, L1 chip, 25°C, 25 mM Tris HCl pH 7.4, 150 mM NaCl, 1 mM CaCl2, 1 mM DTT): 440 ± 50 nM
- Kd (read-out: Kd (dissociation constant for binding of PKCα-C2 to vesicles containing PA derivative), POPC:POPE:PA (55:40:5) vesicles, 5 mol% PA, L1 chip, 25°C, 25 mM Tris HCl pH 7.4, 150 mM NaCl, 1 mM CaCl2, 1 mM DTT): 490 ± 90 nM
